We go through 20 molecules from patent US20240116928A1 (Gilead Sciences, Inc., priority 2022, published 2024).

A word on the EC50: it is the concentration at which the effect is half-maximal. High values mean weaker potency, low ones greater potency. What is called IC50 is the midpoint of a concentration-inhibition curve.

In assay [1] the target is T1, CD73 (Homo sapiens, UniProt P21589).
T1 sequence (P21589 27-549): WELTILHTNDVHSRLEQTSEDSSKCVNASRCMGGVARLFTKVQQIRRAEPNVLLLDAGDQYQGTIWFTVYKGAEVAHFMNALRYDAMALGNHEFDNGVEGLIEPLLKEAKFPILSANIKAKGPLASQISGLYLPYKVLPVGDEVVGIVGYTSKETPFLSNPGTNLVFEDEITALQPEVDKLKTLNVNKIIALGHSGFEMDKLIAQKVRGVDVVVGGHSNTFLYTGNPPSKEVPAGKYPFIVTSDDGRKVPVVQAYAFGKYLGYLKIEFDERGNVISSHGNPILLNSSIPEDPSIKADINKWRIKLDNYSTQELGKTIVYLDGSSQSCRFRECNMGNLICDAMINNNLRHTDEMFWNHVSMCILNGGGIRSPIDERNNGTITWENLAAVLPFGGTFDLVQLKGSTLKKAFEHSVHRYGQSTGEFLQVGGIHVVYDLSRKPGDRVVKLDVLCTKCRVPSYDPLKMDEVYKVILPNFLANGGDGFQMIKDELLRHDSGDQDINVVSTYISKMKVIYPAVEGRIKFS
Briefly: MDA-MB-231 Cell Based CD73 Activity Assay (DMEM). Conditions: MDA-MB-231-GFP cells, DMEM with 10% human plasma, overnight compound treatment, 200 uM AMP, 100 mins. Details: endogenous in cells; host or cells: MDA-MB-231-GFP. As to the method:
Cells were plated into assay plate with compounds pre-spotted, for an overnight compound treatment. 50 uL of 400 uM AMP (final concentration will be 200 uM) was added using Bio-tek dispenser. Plates were incubated for 100 mins. 20 uL of supernatant was transferred into 384-well NUNC plate pre-filled with 60 ul Quench buffer (80% organic and 20% water+0.1% FA) with internal standard. The plates were spun down at 4500 rpm for 20 mins, then 20 ul of supernatant was transferred to another Nunc plate prefilled with 80 ul of water. The samples were analyzed using Rapid fire.

Assay [2] deals with T1, CD73. Briefly: CD73 Biochemical IC50 Assay. Conditions: CD73 enzyme (R&D system) final 0.3 nM, final AMP 15 uM, 60 mins incubation, Rapid fire. As to the method:
CD73 Biochemical IC50 Assay
Compound serial dilutions were pre-spotted into Thermo Nunc assay plate. 50 μL CD73 enzyme buffer (CD73 purchased from R&D system=0.6 nM, 25 mM Tris, pH 7.4, 5 mM MgCl2, 1 mM NaH2PO4) was added into the assay plate and incubated for 15 mins. […] After incubation for 60 mins, the supernatant 20 uL was transferred into 384-well NUNC plate pre-filled with 60 ul Quench buffer (80% organic and 20% water+0.1% FA) with internal standard. The plate was spun down at 4500 rpm for 20 mins, then 20 μl of supernatant was transferred to another Nunc plate prefilled with 80 μl of water. The samples were run using Rapid fire.

On CD73 [1], `CCc1nc(-c2c[nH]c(=O)[nH]c2=O)cc(N2C[C@H](Oc3cc4c(cn3)cnn4CC(F)(F)F)C(F)(F)C2)n1` [Example 1, (S)-6-(3,3-difluoro-4-((1-(2,2,2-trifluoroethyl)-1H-pyrazolo[4,3-c]pyridin-6-yl)oxy)pyrrolidin-1-yl)-2-ethyl-[4,5′-bipyrimidine]-2′,4′ (1′H,3′H)-dione] displayed an EC50 of 33.7 nM. This molecule returned an IC50 on CD73 [2] of 12.7 nM.
Taken in the same sequence, the figures for `O=c1[nH]cc(-c2cc(N3C[C@H](Oc4cc5c(cn4)cnn5CC(F)(F)F)C(F)(F)C3)nc(C3CC3)n2)c(=O)[nH]1` [Example 3, (S)-2-cyclopropyl-6-(3,3-difluoro-4-((1-(2,2,2-trifluoroethyl)-1H-pyrazolo[4,3-c]pyridin-6-yl)oxy)pyrrolidin-1-yl)-[4,5′-bipyrimidine]-2′,4′ (1′H,3′H)-dione] were above 50 nM and 25.7 nM.
For the molecule `O=c1[nH]cc(-c2cc(N3C[C@H](Oc4cc5c(cn4)cnn5CC(F)(F)F)C(F)(F)C3)nc(C(F)(F)F)n2)c(=O)[nH]1` [Example 6, (S)-6-(3,3-difluoro-4-((1-(2,2,2-trifluoroethyl)-1H-pyrazolo[4,3-c]pyridin-6-yl)oxy)pyrrolidin-1-yl)-2-(trifluoromethyl)-[4,5′-bipyrimidine]-2′,4′ (1′H,3′H)-dione], it took 35.7 nM to reach a half-maximal effect at CD73 [1] (EC50). This molecule showed an IC50 against CD73 [2] of 7.14 nM.
The corresponding values for `Cc1nc(-c2c[nH]c(=O)[nH]c2=O)cc(N2C[C@H](Oc3ccnc(C4(C(F)(F)F)CC4)c3)C(F)(F)C2)n1` [Example 7, (S)-6-(3,3-difluoro-4-((2-(1-(trifluoromethyl)cyclopropyl)pyridin-4-yl)oxy)pyrrolidin-1-yl)-2-methyl-[4,5′-bipyrimidine]-2′,4′ (1′H,3′H)-dione] are 1.07 nM and 4.28 nM.
The corresponding values for `Cc1cc(N2C[C@H](Oc3cc4c(cn3)cnn4CC(F)(F)F)C(F)(F)C2)cc(-c2c[nH]c(=O)[nH]c2=O)n1` [Example 10, (S)-5-(4-(3,3-difluoro-4-((1-(2,2,2-trifluoroethyl)-1H-pyrazolo[4,3-c]pyridin-6-yl)oxy)pyrrolidin-1-yl)-6-methylpyridin-2-yl)pyrimidine-2,4(1H,3H)-dione] are 49 nM and 41 nM.
On to `O=c1[nH]cc(-c2cc(N3C[C@H](Oc4cc5c(cn4)cnn5CC(F)(F)F)C(F)(F)C3)cc(C(F)(F)F)n2)c(=O)[nH]1` [Example 11, (S)-5-(4-(3,3-difluoro-4-((1-(2,2,2-trifluoroethyl)-1H-pyrazolo[4,3-c]pyridin-6-yl)oxy)pyrrolidin-1-yl)-6-(trifluoromethyl)pyridin-2-yl)pyrimidine-2,4(1H,3H)-dione], for which the EC50 at CD73 [1] turned out to be 22.5 nM. This molecule also returned an IC50 at CD73 [2] of 12.8 nM.
Taken in the same sequence, the figures for `COc1cc(N2C[C@H](Oc3cc4c(cn3)cnn4CC(F)(F)F)C(F)(F)C2)cc(-c2c[nH]c(=O)[nH]c2=O)n1` [Example 12, (S)-5-(4-(3,3-difluoro-4-((1-(2,2,2-trifluoroethyl)-1H-pyrazolo[4,3-c]pyridin-6-yl)oxy)pyrrolidin-1-yl)-6-methoxypyridin-2-yl)pyrimidine-2,4(1H,3H)-dione] were 27.1 nM and 8.95 nM.
Take `Cc1nc(-c2c[nH]c(=O)[nH]c2=O)cc(N2C[C@H](Oc3cc(C(F)(F)F)ccn3)C(F)(F)C2)n1` [Example 13, 5-[6-[(4S)-3,3-difluoro-4-[[4-(trifluoromethyl)-2-pyridyl]oxy]pyrrolidin-1-yl]-2-methyl-pyrimidin-4-yl]-1H-pyrimidine-2,4-dione]: on CD73 [1], the EC50 was above 50 nM. Also, on CD73 [2], the IC50 is 31.3 nM.
Taken in the same sequence, the figures for `Cc1nc(-c2c[nH]c(=O)[nH]c2=O)cc(N2C[C@H](Oc3cc(OC(F)F)ccn3)C(F)(F)C2)n1` [Example 14, (S)-6-(4-((4-(difluoromethoxy)pyridin-2-yl)oxy)-3,3-difluoropyrrolidin-1-yl)-2-methyl-[4,5′-bipyrimidine]-2′,4′ (1′H,3′H)-dione] were above 50 nM and 4.92 nM.
Taken in the same sequence, the figures for `Cc1nc(-c2c[nH]c(=O)[nH]c2=O)cc(N2C[C@H](Oc3cc(C(F)F)c(F)cn3)C(F)(F)C2)n1` [Example 15, (S)-6-(4-((4-(difluoromethyl)-5-fluoropyridin-2-yl)oxy)-3,3-difluoropyrrolidin-1-yl)-2-methyl-[4,5′-bipyrimidine]-2′,4′ (1′H,3′H)-dione] were above 50 nM and 10.2 nM.
For the molecule `Cc1nc(-c2c[nH]c(=O)[nH]c2=O)cc(N2C[C@H](Oc3ccc(F)c(C(F)F)c3)C(F)(F)C2)n1` [Example 16, (S)-6-(4-(3-(difluoromethyl)-4-fluorophenoxy)-3,3-difluoropyrrolidin-1-yl)-2-methyl-[4,5′-bipyrimidine]-2′,4′ (1′ H,3′ H)-dione], at CD73 [1], the EC50 was above 50 nM. On CD73 [2], this molecule gave an IC50 of 6.28 nM.
For `Cc1nc(-c2c[nH]c(=O)[nH]c2=O)cc(N2C[C@H](Oc3ccc(F)c(OC(F)F)c3)C(F)(F)C2)n1` [Example 17, (S)-6-(4-(3-(difluoromethoxy)-4-fluorophenoxy)-3,3-difluoropyrrolidin-1-yl)-2-methyl-[4,5′-bipyrimidine]-2′,4′ (1′H,3′H)-dione], the EC50 on CD73 [1] is above 50 nM. The same molecule came in with an IC50 against CD73 [2] of 4.21 nM.
In turn, `Cc1nc(-c2c[nH]c(=O)[nH]c2=O)cc(N2C[C@H](Oc3ccnc(C(F)(F)F)c3)C(F)(F)C2)n1` [Example 18, (S)-6-(3,3-difluoro-4-((2-(trifluoromethyl)pyridin-4-yl)oxy)pyrrolidin-1-yl)-2-methyl-[4,5′-bipyrimidine]-2′,4′ (1′ H,3′ H)-dione] came in with a concentration for a half-maximal effect (EC50) on CD73 [1] of 32.9 nM. The molecule further yielded an IC50 against CD73 [2] of 5.7 nM.
The corresponding values for `Cc1nc(-c2c[nH]c(=O)[nH]c2=O)cc(N2C[C@H](Oc3ccc4cnn(CC(F)(F)F)c4c3)C(F)(F)C2)n1` [Example 19, (S)-6-(3,3-difluoro-4-((1-(2,2,2-trifluoroethyl)-1H-indazol-6-yl)oxy)pyrrolidin-1-yl)-2-methyl-[4,5′-bipyrimidine]-2′,4′ (1′H,3′H)-dione] are 26 nM and 6.26 nM.
The molecule `Cc1nc(-c2c[nH]c(=O)[nH]c2=O)cc(N2C[C@H](Oc3ccncc3)C(F)(F)C2)n1` [Example 20, (S)-6-(3,3-difluoro-4-(pyridin-4-yloxy)pyrrolidin-1-yl)-2-methyl-[4,5′-bipyrimidine]-2′,4′ (1′H,3′H)-dione] had an EC50 at CD73 [1] above 50 nM. The molecule also came in with an IC50 against CD73 [2] of 8.7 nM.
Consider `Cc1nc(-c2c[nH]c(=O)[nH]c2=O)cc(N2C[C@H](Oc3ccnc(C(F)F)c3)C(F)(F)C2)n1` [Example 21, (S)-6-(4-((2-(difluoromethyl)pyridin-4-yl)oxy)-3,3-difluoropyrrolidin-1-yl)-2-methyl-[4,5′-bipyrimidine]-2′,4′ (1′ H,3′ H)-dione], for which the EC50 on CD73 [1] was determined as 39.7 nM. Also, 4.97 nM corresponded to half-maximal inhibition at CD73 [2] (IC50).
Regarding `Cc1nc(-c2c[nH]c(=O)[nH]c2=O)cc(N2C[C@H](Oc3cc4c(cnn4CC(F)(F)F)cc3F)C(F)(F)C2)n1` [Example 23, (S)-6-(3,3-difluoro-4-((5-fluoro-1-(2,2,2-trifluoroethyl)-1H-indazol-6-yl)oxy)pyrrolidin-1-yl)-2-methyl-[4,5′-bipyrimidine]-2′,4′ (1′H,3′H)-dione], the EC50 at CD73 [1] was above 50 nM. Moreover, half-maximal inhibition against CD73 [2] (IC50) required 14.4 nM.
In the case of `Cc1cc(O[C@H]2CN(c3cc(-c4c[nH]c(=O)[nH]c4=O)nc(C)n3)CC2(F)F)ccn1` [Example 24, (S)-6-(3,3-difluoro-4-((2-methylpyridin-4-yl)oxy)pyrrolidin-1-yl)-2-methyl-[4,5′-bipyrimidine]-2′,4′ (1′H,3′H)-dione], the EC50 on CD73 [1] is above 50 nM. Besides, at CD73 [2], the IC50 was 7.67 nM.
Taken in the same sequence, the figures for `Cc1nc(-c2c[nH]c(=O)[nH]c2=O)cc(N2C[C@H](Oc3cc(C4(C(F)(F)F)CC4)ccn3)C(F)(F)C2)n1` [Example 25, (S)-6-(3,3-difluoro-4-((4-(1-(trifluoromethyl)cyclopropyl)pyridin-2-yl)oxy)pyrrolidin-1-yl)-2-methyl-[4,5′-bipyrimidine]-2′,4′ (1′H,3′H)-dione] were 5.31 nM and 4 nM.
On to `Cc1nc(OCC(F)(F)COC(=O)NC(C)C)cc(-c2c[nH]c(=O)[nH]c2=O)n1` [Example 26], for which, on CD73 [1], the EC50 was above 50 nM. At CD73 [2], this molecule came in with an IC50 of 7.06 nM.
